Results published in patent US9884818B2, “Sulphamoylpyrrolamide derivatives and the use thereof as medicaments for the treatment of hepatitis B” (Janssen Sciences Ireland UC, priority 2013, dated 2018).

Columns and labels:
[1] = test system: HBV; experiment: Anti-HBV activity, HepG2.2.15 stable transfected cell line, HBV DNA from secreted virions by realtime PCR; format: cell-based; conditions: Hepatitis B virus, HepG2.2.15, 144 h, HepG2.2.15 cells, 6 days of treatment, HBV DNA from secreted virions; read-out: HepG2 2.15 EC50
[2] = test system: HBV; experiment: Anti-HBV activity, HepG2.117 inducibly HBV producing cell line (Tet-off), intracellular HBV DNA by realtime PCR; format: cell-based; conditions: Hepatitis B virus, HepG2.117, 72 h, HepG2.117 cells, 3 days of treatment, intracellular HBV DNA; read-out: HepG2 117 EC50
[3] = Cytotoxicity in HepG2 cells, Resazurin viability assay; conditions: human, HepG2 cells, HepG2 4 days CC50 (μM), incubated for 4 days, Resazurin assay

SMILES	EC50 [1]	EC50 [2]	CC50 at 4 days [3]
Cn1cc(S(=O)(=O)NC(C)(C)CCO)cc1C(=O)Nc1ccc(F)c(C#N)c1 [Compound 296, N-(3-cyano-4-fluoro-phenyl)-4-[(3-hydroxy-1,1-dimethyl-propyl)sulfamoyl]-1-methyl-pyrrole-2-carboxamide]	0.1 µM	0.23 µM	> 25 µM
Cc1cc(NC(=O)c2cc(S(=O)(=O)NC(C)(C)C(=O)N(C)C)cn2C)ccc1F [Compound 63, 4-[[2-(dimethylamino)-1,1-dimethyl-2-oxo-ethyl]sulfamoyl]-N-(4-fluoro-3-methyl-phenyl)-1-methyl-pyrrole-2-carboxamide]	0.06 µM	0.04 µM	> 25 µM
Cc1cccc(F)c1NC(=O)c1c(Cl)c(S(=O)(=O)N[C@H](C)C(F)(F)F)cn1C [Compound 275, 3-chloro-N-(2-fluoro-6-methyl-phenyl)-1-methyl-4-[[(1R)-2,2,2-trifluoro-1-methyl-ethyl]sulfamoyl]pyrrole-2-carboxamide]	0.6 µM	0.7 µM	> 25 µM
Cc1cc(NC(=O)c2cc(S(=O)(=O)N[C@H](C)CO)cn2C)cc(F)c1F [Compound 36, N-(3,4-difluoro-5-methyl-phenyl)-4-[[(1R)-2-hydroxy-1-methyl-ethyl]-sulfamoyl]-1-methyl-pyrrole-2-carboxamide]	0.08 µM	0.04 µM	> 25 µM
Cc1c(F)ccc(NC(=O)c2cc(S(=O)(=O)NC(C)C)cn2C)c1F [Compound 99, N-(2,4-Difluoro-3-methylphenyl)-1-methyl-4-[(1-methylethyl)sulfamoyl]-1H-pyrrole-2-carboxamide]	0.13 µM	0.1 µM	> 25 µM
Cn1cc(S(=O)(=O)NC(C)(C)C)cc1C(=O)Nc1ccc(F)c(OC(F)(F)F)c1 [Compound 98, 4-(tert-Butylsulfamoyl)-N-[4-fluoro-3-(trifluoromethoxy)phenyl]-1-methyl-1H-pyrrole-2-carboxamide]	0.81 µM	0.54 µM	> 25 µM
Cc1cc(NC(=O)c2cc(S(=O)(=O)N[C@@H](C)C(F)(F)F)cn2C)ccc1F [Compound 8, N-(4-fluoro-3-methyl-phenyl)-1-methyl-4-[[(1S)-2,2,2-trifluoro-1-methyl-ethyl]sulfamoyl]pyrrole-2-carboxamide]	0.02 µM	0.02 µM	> 25 µM
Cn1cc(S(=O)(=O)NC2(C(F)(F)F)CCOCC2)cc1C(=O)Nc1ccc(F)c(Cl)c1F [Compound 258, N-(3-chloro-2,4-difluoro-phenyl)-1-methyl-4-[[1-(trifluoromethyl)-tetrahydropyran-4-yl]sulfamoyl]-1H-pyrrole-2-carboxamide]	0.03 µM	0.02 µM	> 25 µM
Cc1cc(NC(=O)c2cc(S(=O)(=O)N[C@H]3CCOC3)cn2C)cc(C)c1F [Compound 31, N-(4-fluoro-3,5-dimethyl-phenyl)-1-methyl-4-[[(3S)-tetrahydrofuran-3-yl]-sulfamoyl]pyrrole-2-carboxamide]	0.13 µM	0.39 µM	> 25 µM
Cn1cc(S(=O)(=O)NC(C)(C)C)cc1C(=O)Nc1ccc(F)c(Cl)c1F [Compound 194, 4-(tert-Butylsulfamoyl)-N-(3-chloro-2,4-difluorophenyl)-1-methyl-1H-pyrrole-2-carboxamide]	0.09 µM	0.05 µM	> 25 µM
C[C@H](CO)NS(=O)(=O)c1cc(C(=O)Nc2ccc(F)c(C(F)(F)F)c2)n(C)c1 [Compound 41, N-[4-fluoro-3-(trifluoromethyl)phenyl]-4-[[(1R)-2-hydroxy-1-methyl-ethyl]sulfamoyl]-1-methyl-pyrrole-2-carboxamide]	0.52 µM	0.33 µM	> 25 µM
CC(C)NS(=O)(=O)c1cc(C(=O)Nc2cccc(C#N)c2F)n(C)c1 [Compound 176, N-(3-Cyano-2-fluorophenyl)-1-methyl-4-[(1-methylyl)sulfamoyl]-1H-pyrrole-2-carboxamide]	0.5 µM	0.37 µM	> 25 µM
Cn1cc(S(=O)(=O)NC(C)(C)C)cc1C(=O)Nc1cc(Cl)c(F)c(Cl)c1 [Compound 76, 4-(tert-Butylsulfamoyl)-N-(3,5-dichloro-4-fluorophenyl)-1-methyl-1H-pyrrole-2-carboxamide]	0.18 µM	0.13 µM	> 25 µM
Cn1cc(S(=O)(=O)NC(CF)CF)cc1C(=O)Nc1ccc(F)c(C#N)c1 [Compound 242, N-(3-Cyano-4-fluorophenyl)-4-{[2-fluoro-1-(fluoromethyl)ethyl]sulfamoyl}-1-methyl-1H-pyrrole-2-carboxamide]	0.2 µM	0.3 µM	> 25 µM
CC[C@@H](NS(=O)(=O)c1cn(C)c(C(=O)Nc2ccc(F)c(C#N)c2)c1F)C(F)(F)F [Compound 288, N-(3-cyano-4-fluoro-phenyl)-3-fluoro-1-methyl-4-[[(1R)-1-(trifluoro-methyl)propyl]sulfamoyl]pyrrole-2-carboxamide]	0.007 µM	0.01 µM	> 25 µM
[2H]C([2H])([2H])C(NS(=O)(=O)c1cc(C(=O)Nc2ccc(F)c(C)c2)n(C)c1)(C([2H])([2H])[2H])C([2H])([2H])[2H] [Compound 69, N-(4-fluoro-3-methyl-phenyl)-1-methyl-4-[[2,2,2-trideuterio-1,1-bis(trideuteriomethyl)ethyl]sulfamoyl]pyrrole-2-carboxamide]	0.03 µM	0.07 µM	> 25 µM
Cn1cc(S(=O)(=O)NC2CC(F)(F)C2)cc1C(=O)Nc1cc(F)c(F)c(Cl)c1 [Compound 164, N-(3-Chloro-4,5-difluorophenyl)-4-[(3,3-difluorocyclobutyl)sulfamoyl]-1-methyl-1H-pyrrole-2-carboxamide]	0.13 µM	0.13 µM	> 25 µM
Cc1cc(NC(=O)c2cc(S(=O)(=O)N[C@@H](C)C(F)(F)F)cn2C)cc(F)c1F [Compound 104, N-(3,4-Difluoro-5-methylphenyl)-1-methyl-4-{[(1S)-2,2,2-trifluoro-1-methylethyl]sulfamoyl}-1H-pyrrole-2-carboxamide]	0.02 µM	0.02 µM	> 25 µM
Cn1cc(S(=O)(=O)NC2(C(F)(F)F)CC2)cc1C(=O)Nc1ccc(F)c(C#N)c1 [Compound 227, N-(3-Cyano-4-fluorophenyl)-1-methyl-4-{[1-(trifluoromethyl)cyclopropyl]sulfamoyl}-1H-pyrrole-2-carboxamide]	0.02 µM	0.04 µM	> 25 µM
C[C@H](NS(=O)(=O)c1cn(C)c(C(=O)Nc2ccc(F)c(C#N)c2)c1Cl)C(F)(F)F [Compound 225, 3-Chloro-N-(3-cyano-4-fluorophenyl)-1-methyl-4-{[(1S)-2,2,2-trifluoro-1-methylethyl]sulfamoyl}-1H-pyrrole-2-carboxamide]	0.07 µM	0.07 µM	> 25 µM
C[C@@H](NS(=O)(=O)c1cc(C(=O)Nc2cccc(C#N)c2)n(C)c1)C(F)(F)F [Compound 158, N-(3-Cyanophenyl)-1-methyl-4-{[(1R)-2,2,2-trifluoro-1-methylethyl]-sulfamoyl}-1H-pyrrole-2-carboxamide]	0.12 µM	0.36 µM	> 25 µM
CC(C)NS(=O)(=O)c1cc(C(=O)Nc2ccc(F)c(F)c2)n(C)c1 [Compound 22, N-(3,4-difluorophenyl)-4-(isopropylsulfamoyl)-1-methyl-pyrrole-2-carboxamide]	0.08 µM	0.07 µM	> 25 µM
Cn1cc(S(=O)(=O)NCC(F)F)cc1C(=O)Nc1ccc(F)c(Cl)c1 [Compound 128, N-(3-Chloro-4-fluorophenyl)-4-[(2,2-difluoroethyl)sulfamoyl]-1-meth-1H-pyrrole-2-carboxamide]	0.15 µM	0.09 µM	> 25 µM
CC[C@@H](C)NS(=O)(=O)c1cc(C(=O)Nc2ccc(F)c(C)c2)n(C)c1 [Compound 6, N-(4-fluoro-3-methyl-phenyl)-1-methyl-4-[[(1R)-1-methylpropyl]-sulfamoyl]pyrrole-2-carboxamide]	0.02 µM	0.02 µM	> 25 µM
Cn1cc(S(=O)(=O)NC2(C)COC2)c(Cl)c1C(=O)Nc1ccc(F)c(C#N)c1 [Compound 306, 3-chloro-N-(3-cyano-4-fluoro-phenyl)-1-methyl-4-[(3-methyloxetan-3-yl)sulfamoyl]-pyrrole-2-carboxamide]	0.03 µM	0.06 µM	> 25 µM
C[C@@H](NS(=O)(=O)c1cn(C)c(C(=O)Nc2ccc(F)c(C#N)c2)c1C#N)C(F)(F)F [Compound 293, 3-cyano-N-(3-cyano-4-fluoro-phenyl)-1-methyl-4-[[(1R)-2,2,2-trifluoro-1-methyl-ethyl]sulfamoyl]pyrrole-2-carboxamide]	0.02 µM	0.05 µM	> 25 µM
CCC(C)(NS(=O)(=O)c1cc(C(=O)Nc2ccc(F)c(Cl)c2F)n(C)c1)C(F)(F)F (stereo not drawn) [Compound 257, N-(3-chloro-2,4-difluoro-phenyl)-1-methyl-4-{[1-methyl-1-(trifluoro-methyl)propyl]sulfamoyl}-1H-pyrrole-2-carboxamide]	0.08 µM	0.09 µM	> 25 µM
CC[C@@H](C)NS(=O)(=O)c1cc(C(=O)Nc2cc(F)c(F)c(Br)c2)n(C)c1 [Compound 47, N-(3-bromo-4,5-difluoro-phenyl)-1-methyl-4-[[(1R)-1-methylpropyl]-sulfamoyl]pyrrole-2-carboxamide]	0.1 µM	0.1 µM	> 25 µM
